# Assay results reported in patent US20170239334A1, “ANTI-DIARRHEA FORMULATION WHICH AVOIDS ANTIMICROBIAL RESISTANCE” (Anatara Lifesciences Limited, priority 2014, published 2017).
# Test: Trial 2 (France): blinded randomised field trial in weaned piglets, weight gain, feed intake and feed conversion ratio versus in-feed colistin
# Format: in vivo
# Method: Aim: The objective of this study was to compare the feed conversion ratios of piglets administered a single dose of my formulation with in feed colistin, an antibiotic.
# Study Outline: This study was a blinded, controlled, randomised field trial comparing three parallel groups of piglets, (n=89 per group): 1. Colistin; 2. My formulation; and 3. No treatment. In this study, whole litters are randomised to receive different treatments, so litters are treated on a whole litter basis.
# Weaning on this farm occurs in 2 stages. In stage 1, piglets are weaned by removing the sow (at day-5). Then on day 0, piglets are moved to their weaning pen.
# At day-5, Group 1 piglets were administered colistin (9 kg antibiotic premix per Ton of feed) in pre-starter feed for 14 days (day-5 to day 9). The other two groups were administered pre-starter feed alone. On day 0 (5 days post weaning), when piglets are moved to their weaner pens, Group 2 piglets received a single dose of my formulation. Group 3 piglets were untreated.
# Analysis: As Per Study 1.
# [1] = pre-starter phase (d-5 to d9), 6 pens
substance,measurement,setting,value
colistin,Average Daily Weight gain,Post weaning,377 ± 82 g
same,Average Daily Weight gain,Post weaning and fattening (overall),664 ± 67 g
same,Average Daily Weight gain,Pre-starter (d -5 to d 9),167 ± 67 g
same,Average Daily Weight gain,Starter,505 ± 110 g
same,"Feed Conversion Ratio, Arithmetic Mean",[1],2.71
same,"Feed Conversion Ratio, Median",[1],2.59
same,"Feed Conversion Ratio, Min-Max",[1],1.75-3.42
same,"Feed intake, Arithmetic Mean",[1],417 g
same,"Feed intake, Min-Max",[1],358 to 479 g
